Measurements as given in ChEMBL document CHEMBL3727361, “Nitrogen bicyclic compounds as inhibitors for Scyl1 and Grk5” (2014).

Tested on: Beta-TC6
Experiment: Increase in insulin release in mouse BetaTC6 cells assessed as relative insulin release activity at 10 uM incubated for 2 to 4 hrs by FRET based HTRF assay relative to sunitinib
Type: functional

Row | Structure (SMILES) | Activity
1 | COc1ccc(-c2cnc3ccc(NCc4cccs4)nn23)c(OC)c1 | 20%
2 | COc1ccc(CNc2ccc3ncc(-c4ccc(OC)cc4OC)n3n2)cc1 | 10%
3 | COc1ccc(-c2cnc3cnc(-c4ccc(N5CCN(C)CC5)cc4)cn23)cn1 | 20%
4 | Nc1cccc(-c2cnc3ccc(NC4CCOCC4)nn23)c1 | 20%
5 | c1ccc(-c2cnc3cnc(-c4cccs4)cn23)cc1 | 20%
6 | COc1cc(-c2cn3c(-c4ccc5c(ccn5C)c4)cnc3cn2)ccc1O | 20%
7 | COc1ccc(-c2cnc3cnc(-c4ccc(N)nc4)cn23)cc1 | 20%
8 | CSc1ccc(-c2cnc3cccnn23)cc1 | 10%
9 | Oc1cccc(-c2cnc3cnc(-c4cccs4)cn23)c1 | 20%
10 | N#Cc1ccc(-c2ccc3nnc(-c4cccc(O)c4)n3c2)cc1 | 50%
11 | COc1ccc(-c2nnc3ccc(-c4cccc(F)c4)cn23)cc1OC | >=100%
12 | COc1ccc(CNc2ccc3ncc(-c4ccc(O)cc4)n3n2)cc1 | 20%
13 | CN1CCN(c2ccc(-c3cn4c(-c5cccc(O)c5)cnc4cn3)cc2)CC1 | 20%
14 | CN1CCN(c2ccc(-c3cnc4cccnn34)cn2)CC1 | 10%
15 | COc1ccc(-c2ccc3nnc(-c4cscn4)n3c2)c(C)c1 | 50%
16 | Oc1cccc(-c2ccc3nnc(-c4ccccn4)n3c2)c1 | 50%
17 | c1cncc(CCNc2ccc3ncc(-c4ccc(N5CCOCC5)cc4)n3n2)c1 | 50%
18 | OCc1ccc(-c2ccc3ncc(-c4cccnc4)n3n2)cc1 | 20%
19 | COc1ccccc1-c1ccc2ncc(-c3ccc(F)c(Cl)c3)n2n1 | 20%
20 | OCc1ccc(-c2cnc3cnc(-c4ccco4)cn23)cc1 | 20%
21 | c1cncc(-c2cnc3ccc(-c4cccs4)nn23)c1 | 20%
22 | Nc1cccc(-c2ccc3ncc(-c4cccc(Cl)c4)n3n2)c1 | 20%

Row | Structure (SMILES) | Activity
23 | CC(=O)Nc1cccc(-c2ccc3nnc(-c4ccc5nccnc5c4)n3c2)c1 | 50%
24 | c1cc(-c2ccc3nnc(-c4ccc5c(c4)OCO5)n3c2)co1 | 50%
25 | COc1cc(-c2cnc3cnc(-c4ccc5c(c4)OCO5)cn23)ccc1O | 20%
26 | CCOc1cccc(-c2cn3c(-c4cccc(CO)c4)cnc3cn2)c1 | 20%
27 | CN(C)c1cccc(-c2cnc3cnc(-c4ccsc4)cn23)c1 | 50%
28 | Fc1ccc(-c2cnc3cnc(-c4ccco4)cn23)cc1Cl | 20%
29 | Cc1cc(-c2cn3c(-c4ccc5ncccc5c4)cnc3cn2)cc(C)c1O | 20%
30 | CCOc1cccc(-c2cnc3cccnn23)c1 | 10%
31 | O=C(NC1CC1)c1ccc(-c2cn3c(-c4ccc(O)cc4)cnc3cn2)cc1 | 20%
32 | N#Cc1cccc(-c2nnc3ccc(-c4ccccn4)cn23)c1 | 20%
33 | COc1cncc(-c2ccc3nnc(-c4cccc(OC(F)(F)F)c4)n3c2)c1 | 50%
34 | CCCNc1ccc2ncc(-c3cccc(/C=C/C(=O)O)c3)n2n1 | 10%
35 | Clc1cccc(-c2nnc3ccc(-c4ccncc4)cn23)c1 | 50%
36 | CN(C)c1ccc(-c2cnc3cnc(-c4cccc(NS(C)(=O)=O)c4)cn23)cc1 | 20%
37 | CC(=O)Nc1ccc(-c2ccc3nnc(-c4cccc(Cl)c4)n3c2)cc1 | 20%
38 | CC(C)c1cccc(-c2ccc3nnc(-c4cccnc4)n3c2)c1 | 50%
39 | O=C(NC1CC1)c1ccc(-c2cnc3cccnn23)cc1 | 10%
40 | COc1ccc(-c2cnc3ccc(NCCCO)nn23)c(OC)c1 | 10%
41 | CN1CCN(C(=O)c2cccc(-c3cnc4cnc(-c5ccc6c(ccn6C)c5)cn34)c2)CC1 | 20%
42 | CC(=O)c1ccc(-c2cn3c(-c4ccc(C(=O)NC5CC5)cc4)cnc3cn2)s1 | 20%
43 | O=C(Nc1cnc2cnc(-c3ccsc3)cn12)c1cccs1 | 20%
44 | CS(=O)(=O)Nc1cccc(-c2cnc3ccc(Cc4ccc(F)cc4)nn23)c1 | 10%

Row | Structure (SMILES) | Activity
45 | COc1ccc(-c2nnc3ccc(-c4cccc(N(C)C)c4)cn23)cc1OC | 50%
46 | c1cc(-c2cn3c(-c4ccc5c(c4)OCO5)cnc3cn2)cs1 | 50%
47 | CC(=O)c1ccc(-c2cnc3cccnn23)cc1 | 10%
48 | CC(=O)Nc1cccc(-c2cn3c(-c4ccc(F)c(Cl)c4)cnc3cn2)c1 | 20%
49 | Cc1ccccc1-c1cn2c(-c3ccc4c(c3)OCO4)cnc2cn1 | 20%
50 | COc1cncc(-c2cnc3ccc(Cc4ccc(F)cc4)nn23)c1 | 20%
51 | Cn1cncc1C#Cc1ccc2nnc(-c3ccc4c(c3)OCO4)n2c1 | 20%
52 | Clc1cccc(-c2nnc3ccc(-c4ncccn4)cn23)c1 | 10%
53 | CN(C)c1ccc(-c2cnc3cnc(-c4ccccc4N(C)C)cn23)cc1 | 20%
54 | c1ccc(Oc2cccc(-c3ccc4nnc(-c5ccncc5)n4c3)c2)cc1 | 20%
55 | COc1ccc(-c2cnc3ccc(NCC4CC4)nn23)cn1 | 10%
56 | CN(C)/C(=C1\N=C(c2ccccc2)OC1=O)c1cnc2cccnn12 | 10%
57 | O=C(Nc1cnc2cnc(-c3cnn(Cc4ccccc4)c3)cn12)C1CCC1 | 20%
58 | COc1ccc(-c2cnc3ccc(N[C@H](CO)C(C)C)nn23)c(OC)c1 | 20%
59 | COc1ccc(-c2cnc3cnc(-c4cccc(C(N)=O)c4)cn23)cn1 | 20%
60 | FC(F)(F)c1cccc(-c2cnc3ccc(C4CC4)nn23)c1 | 10%
61 | CCC(CO)Nc1ccc2ncc(-c3ccccc3Cl)n2n1 (stereo not given) | 10%
62 | COc1ccc(-c2nnc3ccc(-c4cccc(C(=O)N(C)C)c4)cn23)cc1OC | 50%
63 | Nc1cccc(-c2ccc3nnc(-c4cccc(Cl)c4)n3c2)c1 | 50%
64 | Cc1ccccc1-c1cnc2cnc(-c3cccs3)cn12 | 10%
65 | COc1cc(-c2cnc3ccc(-c4cccc(OC(F)(F)F)c4)nn23)ccc1O | 10%
66 | COc1cc(-c2ccc3nnc(-c4ccoc4)n3c2)cc(OC)c1OC | 50%

Row | Structure (SMILES) | Activity
67 | CC(=O)Nc1cccc(-c2cnc3ccc(NCc4ccc(F)cc4)nn23)c1 | 10%
68 | CN(C)c1ccc(-c2cnc3cnc(-c4ccc(CO)cc4)cn23)cc1 | 50%
69 | COc1ccccc1CC(=O)Nc1cnc2cnc(-c3cccc(Cl)c3Cl)cn12 | 20%
70 | COc1ccc(-c2cnc3ccc(NCc4ccccn4)nn23)cc1OC | 20%
71 | CS(=O)(=O)Nc1cccc(-c2cn3c(-c4ccc(Oc5ccccc5)cc4)cnc3cn2)c1 | 20%
72 | CN(C)CCCNC(=O)c1ccc(-c2cn3c(-c4ccc(N(C)C)cc4)cnc3cn2)cc1 | 50%
73 | CN(C)c1ccc(-c2cnc3cnc(-c4cccc(C(N)=O)c4)cn23)cc1 | 20%
74 | COc1cc(OC)cc(-c2cn3c(-c4cccs4)cnc3cn2)c1 | 20%
75 | CC(=O)c1cccc(-c2cnc3cnc(-c4cccnc4)cn23)c1 | 20%
76 | CN(C)c1cccc(-c2cnc3cnc(-c4ccc(CO)cc4)cn23)c1 | 20%
77 | COc1ccccc1-c1cn2c(NC(=O)c3ccccc3)cnc2cn1 | 20%
78 | CS(=O)(=O)c1cccc(-c2ccc3nnc(-c4cccc(OC(F)(F)F)c4)n3c2)c1 | 50%
79 | CN(C)C(=O)c1ccc(-c2cnc3cnc(-c4ccsc4)cn23)cc1 | 20%
80 | COc1cc(-c2ccc3ncc(-c4ccc(F)c(Cl)c4)n3n2)cc(OC)c1OC | 10%
81 | Fc1cccc(-c2cn3c(-c4ccc5c(c4)OCO5)cnc3cn2)c1 | 50%
82 | CS(=O)(=O)c1ccc(-c2cnc3ccc(Cc4ccccc4)nn23)cc1 | 10%
83 | CN(C)c1cccc(-c2ccc3nnc(-c4cscn4)n3c2)c1 | 50%
84 | Clc1cccc(-c2nnc3ccc(-c4ccoc4)cn23)c1 | 50%
85 | OCC#Cc1ccc2nnc(-c3ccc4c(c3)OCO4)n2c1 | 20%
86 | O=C(NCCO)c1cccc(-c2cn3c(-c4cccs4)cnc3cn2)c1 | 20%
87 | CN1CCN(C(=O)c2cccc(-c3ccc4nnc(-c5ccc6nccnc6c5)n4c3)c2)CC1 | 20%
88 | c1csc(-c2cnc3cnc(-c4cc5ccccc5s4)cn23)c1 | 50%

Row | Structure (SMILES) | Activity
89 | CSc1ccc(-c2cn3c(-c4cccc(CO)c4)cnc3cn2)cc1 | 20%
90 | CN1CCN(C(=O)c2cccc(-c3cnc4cnc(-c5ccccc5Oc5ccccc5)cn34)c2)CC1 | 20%
91 | Brc1cnc2ccc(NCCCN3CCOCC3)nn12 | 10%
92 | CN(C)C(=O)c1cccc(-c2ccc3nnc(-c4ccc5nccnc5c4)n3c2)c1 | 50%
93 | CC(C)N1CCN(c2ccc(-c3cn4c(-c5ccc(C(=O)NC6CC6)cc5)cnc4cn3)cc2)CC1 | 20%
94 | Oc1ccc(-c2cnc3cnc(-c4ccc(Cl)cc4)cn23)cc1 | 20%
95 | Oc1cccc(-c2cnc3cnc(/C=C/c4ccccc4)cn23)c1 | 20%
96 | COc1cc(-c2nnc3ccc(-c4ccccc4C)cn23)ccc1O | 50%
97 | CN(C)C(=O)c1cccc(-c2cn3c(-c4ccc(N(C)C)cc4)cnc3cn2)c1 | 20%
98 | Cc1cccc(-c2cn3c(-c4ccc(CCC(=O)O)cc4)cnc3cn2)c1C | 50%
99 | COc1cc(-c2cn3c(-c4ccc5ncccc5c4)cnc3cn2)cc(OC)c1OC | 20%
100 | COc1cc(OC)cc(-c2cn3c(-c4ccc5c(c4)OCO5)cnc3cn2)c1 | 50%
101 | COc1cc(-c2ccc3ncc(-c4cccs4)n3n2)ccc1O | 20%
102 | CC(C)Oc1cccc(-c2cn3c(-c4cccc(CO)c4)cnc3cn2)c1 | 20%
103 | Cc1cc(-c2cn3c(-c4ccncc4)cnc3cn2)cc(C)c1O | 20%
104 | Clc1ccccc1-c1ccc2nnc(-c3cccnc3)n2c1 | 50%
105 | Cc1ccccc1-c1nnc2ccc(-c3cccc(C(=O)NCCO)c3)cn12 | 10%
106 | c1cc2cc(-c3ccc4nnc(-c5cscn5)n4c3)ccc2[nH]1 | 50%
107 | FC(F)(F)c1cccc(C#Cc2ccc3nnc(-c4ccncc4)n3c2)c1 | 10%
108 | CS(=O)(=O)Nc1cccc(-c2cn3c(-c4cccs4)cnc3cn2)c1 | 20%
109 | Oc1ccc(-c2cn3c(-c4cccs4)cnc3cn2)cc1 | 50%
110 | Fc1cccc(-c2cn3c(-c4ccccc4)cnc3cn2)c1 | 20%
